Assay results: ChEMBL document CHEMBL1137417, “Design, synthesis, and biological evaluation of hydroquinone derivatives of 17-amino-17-demethoxygeldanamycin as potent, water-soluble inhibitors of Hsp90” (J Med Chem, 2006)

Columns and labels:
Heat shock protein HSP90 [1] = biological target: T1, Heat shock protein HSP90 (Homo sapiens, UniProt P07900+P08238); assay: Degradation of Her2 in SKOV3 cells; format: functional, cell-based; conditions: sk-ov-3
Heat shock protein HSP90 [2] = biological target: T1, Heat shock protein HSP90; assay: Inhibition of BODIPY-AG binding to human HSP90; format: protein assay
Heat shock protein HSP90 [3] = biological target: T1, Heat shock protein HSP90; assay: Upregulation of Hsp70 in SKOV3 cells; format: functional, cell-based; conditions: sk-ov-3
Heat shock protein HSP90 [4] = biological target: T1, Heat shock protein HSP90; assay: Upregulation of Hsp70 in SKBR3 cells; format: functional, cell-based; conditions: sk-br-3
SK-BR-3 = assay: Inhibition of human SKBR3 cell growth; format: functional
SK-OV-3 = assay: Inhibition of human SKOV3 cell growth; format: functional
Endoplasmin = Endoplasmin (Canis lupus familiaris, UniProt P41148); assay: Inhibition of BODIPY-AG binding to dog Grp94
Sequence of Endoplasmin (P41148 whole entry): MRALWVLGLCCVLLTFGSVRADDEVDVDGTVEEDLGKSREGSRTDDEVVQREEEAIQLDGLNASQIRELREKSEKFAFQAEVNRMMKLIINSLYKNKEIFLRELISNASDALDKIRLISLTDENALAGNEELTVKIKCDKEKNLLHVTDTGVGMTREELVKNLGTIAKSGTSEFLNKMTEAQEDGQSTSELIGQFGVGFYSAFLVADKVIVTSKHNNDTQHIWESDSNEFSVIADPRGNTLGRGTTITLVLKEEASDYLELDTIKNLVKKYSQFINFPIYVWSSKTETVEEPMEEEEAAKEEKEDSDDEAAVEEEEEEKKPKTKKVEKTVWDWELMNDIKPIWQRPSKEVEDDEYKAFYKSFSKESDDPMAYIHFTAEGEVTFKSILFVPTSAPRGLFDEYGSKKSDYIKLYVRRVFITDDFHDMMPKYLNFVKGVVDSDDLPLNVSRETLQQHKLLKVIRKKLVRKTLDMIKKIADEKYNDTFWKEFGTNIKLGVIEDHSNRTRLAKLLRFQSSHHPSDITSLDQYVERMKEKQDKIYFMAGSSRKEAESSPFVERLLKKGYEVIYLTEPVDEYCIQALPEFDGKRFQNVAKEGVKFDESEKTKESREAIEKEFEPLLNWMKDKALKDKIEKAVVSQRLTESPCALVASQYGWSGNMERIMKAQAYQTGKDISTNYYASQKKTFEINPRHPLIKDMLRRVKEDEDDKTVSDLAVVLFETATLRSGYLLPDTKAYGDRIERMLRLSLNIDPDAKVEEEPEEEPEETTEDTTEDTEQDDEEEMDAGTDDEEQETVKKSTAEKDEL

Heat shock protein HSP90 [5] = biological target: T1, Heat shock protein HSP90; assay: Degradation of Her2 in SKBR3 cells; format: functional, cell-based; conditions: sk-br-3

With `CO[C@H]1/C=C\C=C(/C)C(=O)Nc2cc(O)c(N)c(c2O)C[C@@H](C)C[C@H](OC)[C@H](O)[C@@H](C)/C=C(\C)[C@@H]1OC(N)=O.Cl` the EC50 (Heat shock protein HSP90 [1]) was 0.031 µM, the EC50 (Heat shock protein HSP90 [2]) was 0.034 µM and the EC50 (Heat shock protein HSP90 [3]) was 0.01 µM. For the same compound, the EC50 (Heat shock protein HSP90 [4]) was 0.058 µM, the GI50 (SK-BR-3) was 0.05 µM and the GI50 (SK-OV-3) was 0.017 µM. The EC50 (Endoplasmin) was 0.048 µM.

For `CO[C@H]1/C=C\C=C(/C)C(=O)NC2=CC(=O)C(NC[C@H](O)CO)=C(C[C@@H](C)C[C@H](OC)[C@H](O)[C@@H](C)/C=C(\C)[C@@H]1OC(N)=O)C2=O`, the EC50 (Heat shock protein HSP90 [1]) was 4.585 µM, the EC50 (Heat shock protein HSP90 [2]) was 0.066 µM and the EC50 (Heat shock protein HSP90 [3]) was 0.853 µM. For the same compound, the EC50 (Heat shock protein HSP90 [4]) was 0.14 µM, the GI50 (SK-BR-3) was 0.724 µM and the GI50 (SK-OV-3) was 2.02 µM. It also gave an EC50 (Endoplasmin) of 0.072 µM and an EC50 (Heat shock protein HSP90 [5]) of 0.141 µM.

`Nc1ncnc2c1ncn2[C@@H]1O[C@H](COP(=O)(O)OP(=O)(O)O)[C@@H](O)[C@H]1O` [ADENOSINE DIPHOSPHATE] gave an EC50 (Heat shock protein HSP90 [2]) of 87 µM and an EC50 (Endoplasmin) of 21 µM.

In the case of `C=CCNC1=C2C[C@@H](C)C[C@H](OC)[C@H](O)[C@@H](C)/C=C(\C)[C@H](OC(N)=O)[C@@H](OC)/C=C\C=C(/C)C(=O)NC(=CC1=O)C2=O` [TANESPIMYCIN], the GI50 (SK-BR-3) is reported as 0.017 µM, the GI50 (SK-OV-3) is reported as 0.015 µM and the EC50 (Endoplasmin) is reported as 0.124 µM.

In the case of `C=CCn1c(=O)oc2cc3c(O)c(c21)C[C@@H](C)C[C@H](OC)[C@H](O)[C@@H](C)/C=C(\C)[C@H](OC(N)=O)[C@@H](OC)/C=C\C=C(/C)C(=O)N3`, the EC50 (Heat shock protein HSP90 [1]) is reported as 0.742 µM, the EC50 (Heat shock protein HSP90 [2]) is reported as 0.603 µM and the EC50 (Heat shock protein HSP90 [3]) is reported as 2.283 µM. The EC50 (Heat shock protein HSP90 [4]) was 0.384 µM, the GI50 (SK-BR-3) was 0.583 µM and the GI50 (SK-OV-3) was 1.24 µM. The EC50 (Heat shock protein HSP90 [5]) was 1.046 µM.

For `C=CCNc1c(O)cc2c(O)c1C[C@@H](C)C[C@H](OC)[C@H](O)[C@@H](C)/C=C(\C)[C@H](OC(N)=O)[C@@H](OC)/C=C\C=C(/C)C(=O)N2.Cl` [RETASPIMYCIN HYDROCHLORIDE], the EC50 (Heat shock protein HSP90 [1]) was 0.027 µM, the EC50 (Heat shock protein HSP90 [2]) was 0.063 µM and the EC50 (Heat shock protein HSP90 [3]) was 0.016 µM. It also gave a GI50 (SK-BR-3) of 0.022 µM, a GI50 (SK-OV-3) of 0.052 µM and an EC50 (Endoplasmin) of 0.119 µM. It also gave an EC50 (Heat shock protein HSP90 [5]) of 0.02 µM.

With `CO[C@H]1/C=C\C=C(/C)C(=O)NC2=CC(=O)C(N)=C(C[C@@H](C)C[C@H](OC)[C@H](O)[C@@H](C)/C=C(\C)[C@@H]1OC(N)=O)C2=O` the EC50 (Heat shock protein HSP90 [1]) was 0.053 µM, the EC50 (Heat shock protein HSP90 [2]) was 0.034 µM and the EC50 (Heat shock protein HSP90 [3]) was 0.006 µM. It also gave an EC50 (Heat shock protein HSP90 [4]) of 0.017 µM, a GI50 (SK-BR-3) of 0.025 µM and a GI50 (SK-OV-3) of 0.014 µM. The EC50 (Endoplasmin) was 0.048 µM and the EC50 (Heat shock protein HSP90 [5]) was 0.008 µM.

With `C=CCN1C(=O)COc2cc3c(O)c(c21)C[C@@H](C)C[C@H](OC)[C@H](O)[C@@H](C)/C=C(\C)[C@H](OC(N)=O)[C@@H](OC)/C=C\C=C(/C)C(=O)N3` the EC50 (Heat shock protein HSP90 [1]) was 0.415 µM, the EC50 (Heat shock protein HSP90 [2]) was 0.541 µM and the EC50 (Heat shock protein HSP90 [3]) was 1.005 µM. It also gave an EC50 (Heat shock protein HSP90 [4]) of 0.311 µM, a GI50 (SK-BR-3) of 0.739 µM and a GI50 (SK-OV-3) of 0.726 µM. It also gave an EC50 (Heat shock protein HSP90 [5]) of 0.19 µM.

In the case of `CO[C@H]1/C=C\C=C(/C)C(=O)NC2=CC(=O)C(NCCN(C)C)=C(C[C@@H](C)C[C@H](OC)[C@H](O)[C@@H](C)/C=C(\C)[C@@H]1OC(N)=O)C2=O` [ALVESPIMYCIN], the GI50 (SK-BR-3) is reported as 0.029 µM, the GI50 (SK-OV-3) is reported as 0.032 µM and the EC50 (Endoplasmin) is reported as 0.065 µM.

For `C=CCNc1c(O)cc2nc3oc2c1C[C@@H](C)C[C@H](OC)[C@H](O)[C@@H](C)/C=C(\C)[C@H](OC(N)=O)[C@@H](OC)/C=C\C=C\3C.Cl`, the EC50 (Heat shock protein HSP90 [1]) was 0.435 µM, the EC50 (Heat shock protein HSP90 [2]) was > 10 µM and the EC50 (Heat shock protein HSP90 [3]) was 3.229 µM. The GI50 (SK-BR-3) was 1.78 µM, the GI50 (SK-OV-3) was 0.371 µM and the EC50 (Endoplasmin) was > 10 µM. It also gave an EC50 (Heat shock protein HSP90 [5]) of 0.585 µM.

In the case of `Nc1ncnc2c1ncn2[C@@H]1O[C@H](COP(=O)(O)OP(=O)(O)OP(=O)(O)O)[C@@H](O)[C@H]1O` [ADENOSINE TRIPHOSPHATE], the EC50 (Heat shock protein HSP90 [2]) is reported as 1500 µM and the EC50 (Endoplasmin) is reported as 19 µM.

With `CO[C@H]1/C=C\C=C(/C)C(=O)Nc2cc(O)c(NC[C@H](O)CO)c(c2O)C[C@@H](C)C[C@H](OC)[C@H](O)[C@@H](C)/C=C(\C)[C@@H]1OC(N)=O.Cl` the EC50 (Heat shock protein HSP90 [1]) was 0.756 µM, the EC50 (Heat shock protein HSP90 [2]) was 0.091 µM and the EC50 (Heat shock protein HSP90 [3]) was > 10 µM. It also gave an EC50 (Heat shock protein HSP90 [4]) of 0.102 µM, a GI50 (SK-BR-3) of 0.832 µM and a GI50 (SK-OV-3) of 1.11 µM. For the same compound, the EC50 (Endoplasmin) was 0.131 µM and the EC50 (Heat shock protein HSP90 [5]) was 0.321 µM.
